Experimental data as given in patent US11378572B2, “Therapeutic agent for immune cell migration-caused disease and method for screening same” (ZYMEDI CO., LTD., priority 2017, dated 2022).

Tested on: ear skin wound model
Assay: Ear skin wound model (acute inflammatory response)
Type: in vivo, CX3CR1-GFP mouse
Details: 100 mg/kg oral once daily, 4 days
Procedure: To investigate the effect of the inhibitor of KRS translocation to the plasma membranes during monocyte infiltration in acute inflammatory responses, an ear skin wound model using CX3CR1-GFP mouse (Stock no. #005582, Jackson Laboratory, Bar Harbor, USA) was prepared. Monocytes, macrophages and Langerhans cells appear green in CX3R1-GFP mice. Mice were administered orally with vehicle or BC-KI-00053 (100 mg/kg, dissolved in vehicle, once daily) for a total of 4 days from 2 days prior to imaging (D−2, D−1, D−0, D+1). For a vehicle, corn oil:polyethylene glycol 400:Tween 80:methyl cellulose (1%)=20:30:1:49 was used. A 31G syringe was used to puncture the skin of the ear (time D−0) to induce acute inflammatory responses. Blood vessels were labeled using anti-CD31 antibody bound to Alexa Flour 555 (identifiable as red). Confocal microscopy was used as an imaging equipment.

COc1ccc(CCN(Cc2ccc(C(=O)O)cc2)c2nc3cccc(F)c3s2)cc1 [BC-KI-00053, 4-({(7-fluorobenzo[d]thiazol-2-yl)[2-(4-methoxyphenyl)ethyl]amino}methyl)benzoic acid]
infiltration of monocytes and macrophages around skin wound: significantly reduced
